pIC50: −log10 of the molar value. Where two headings read alike, the source gives them in different places.
Experiments:
ATXN3 Pre-mRNA = experiment: RT-qPCR Assay to Quantify Exon 4 Skipping in ATXN3 Pre-mRNA in Cells; assay type: cell-based; details: for pIC50 / IC50: percent exon 4 skipping by RT-qPCR after 24 h, 7-point concentration curve; for pIC50: read-out: IC50
Description: (§1) Test compounds were serially diluted 3.16-fold in 100% DMSO to generate a 7-point concentration curve. Aliquots of 0.5 μL of diluted compounds were transferred to a 96-well flat bottom plate by a liquid handler. An aliquot of 0.5 μL DMSO was also transferred to separate wells and used as controls. Duplicate samples were set up for each compound concentration and for the DMSO control.
Cells were thawed and incubated in cell culture media (DMEM, 10% FBS, and 1% antibiotic cocktail) for 72 h. Cells were trypsinized, counted, and re-suspended to a concentration of 100,000 cells/mL in cell culture media. A 100 μL aliquot of the cell suspensions were plated at 10,000 cells per well in the compound containing 96 well microtiter plate and incubated for in a cell culture incubator (37° C., 5% CO2, 100% relative humidity).
After 24 h, media was aspirated from the cells and 50 μL of the RCL2 lysis buffer (10 mM Tris-HCL pH 7.4, 150 mM NaCl, 0.33% IGEPAL® CA-630) was added to each well and incubated at RT for 1 min. Chilled nuclease free water (50 μL per well) was added and the plates were immediately transferred on ice. After 1 min on ice, plates were frozen at −80° C. overnight.
Preparation of RT-qPCR Reaction Mixture:
An aliquot of 2 μL/well of the cell lysates was transferred using the liquid handler to the Armadillo 384-Well PCR plate containing 8 μL/well of the RT-qPCR reaction mixture that was prepared as detailed above. The plates were then sealed with MicroAmp™ Optical Adhesive Film followed by spinning down for 1 min and placed in the CFX384 thermocycler (BioRad).
The RT-qPCR was carried out at the following temperatures for the indicated time: • Step 1:48° C. (30 min) • Step 2: 95° C. (10 min) • Step 3: 95° C. (15 sec) • Step 4: 60° C. (1 min); then, repeated Steps 3 and 4 for a total of 40 cycles.
The percent exon 4 skipping was calculated for each dose of compound treatment using Equations 1 and 2.
Data were fit to a dose response curve and the IC50 was interpolated using XLfit® statistical and curve fitting package.
An IC50 value between >2.0 μM and ≤3.0 μM is indicated by one star (*). […] IC50 value between >0.5 μM and ≤1.0 μM is indicated by four stars (****). An IC50 value≤0.5 μM is indicated by five stars (*****).

[1] = system: Endogenous Total ATXN3 (tATXN3) Protein; experiment: Endogenous Total ATXN3 (tATXN3) Protein Assay (MSD); assay type: cell-based; details: for pIC50 / IC50: average IC50, total ATXN3 protein in cell lysate after 48 h, 7-point concentration curve; for pIC50: read-out: IC50
Description: Meso Scale Discovery (MSD) 96-well or 384-well plates were coated overnight at 4° C. with Ataxin 3 mouse monoclonal antibody (Invitrogen, MA3-082) at a concentration of 0.5 μg/mL in PBS (30 μL per well). Plates were then washed three times with 300 μL wash buffer (0.05% TWEEN®-20, polyethylene glycol sorbitan monolaurate, in PBS) and blocked (Meso Scale Diagnostics, R93BA-1; 5% BSA in PBS) for 2 h at RT with rotational shaking and then washed three times with wash buffer.
as §1
Cells were thawed and incubated in cell culture media (DMEM, 10% FBS, and 1% antibiotic cocktail) for 72 h. Cells were trypsinized, counted, and re-suspended to a concentration of 100,000 cells/mL in cell culture media. A 100 μL aliquot of the cell suspensions were plated at 10,000 cells per well in the compound containing 96 well microtiter plate and incubated for in a cell culture incubator (37° C., 5% CO2, 100% relative humidity). After 48 h, the medium was removed and 50-100 μL of lysis buffer (Meso Scale Diagnostics, R60TX-2) containing 1× halt protease inhibitor cocktail of (Thermo Scientific, Halt™ Protease Inhibitor Cocktail, 78430) per well was added to cells to provide a “cell lysate”. The plate was placed on a shaker at 4° C. for 30 minutes, then stored at −80° C.
Cell lysate samples (25 μL) were transferred to the antibody-coated MSD plate and incubated overnight at 4° C. After removal of the lysates, the plate was washed three times with wash buffer, and 25 μL of Ataxin 3 recombinant rabbit monoclonal antibody (Invitrogen, #702788) secondary antibody (diluted to 0.25 μg/mL in 0.05% TWEEN®-20 in blocking buffer) was added to each well and incubated with shaking for 1-2 h at room temperature. Following incubation with the secondary antibody, the wells were rinsed with wash buffer and then […] Anti Rabbit Antibody Goat SULFO-TAG Labeled (Meso Scale Diagnostics, R32AB-1) detecting antibody (diluted to 0.25 μg/mL in 0.05% TWEEN®-20 in blocking buffer) was added to each well and incubated with shaking for 1 h at room temperature. After rinsing three times with wash buffer, 150 μL of Read Buffer T with surfactant (tris-based buffer containing tripropylamine, Meso Scale Diagnostics, R92TC-1) were added to each empty well, and the plate was imaged on a SI 6000 imager (MSD) according to manufacturers' instructions provided for 96- or 384-well plates.

SMILES	pIC50 (ATXN3 Pre-mRNA)	pIC50 [1]	further results
Clc1nc(NCc2ccncc2)c2cc[nH]c2n1 [Comparison Compound 1, 2-chloro-N-(pyridin-4-ylmethyl)-7H-pyrrolo[2,3-d]pyrimidin-4-amine, reference compound]	–	–	ATXN3 mRNA IC50 (ATXN3 Pre-mRNA; tested according to the assay of Example 2): inactive; ATXN3 Protein IC50 ([1]; tested according to the assay of Example 1): inactive
C[C@H](N)Cc1[nH]c2nc(Cl)nc(NCc3ccco3)c2c1F [Cpd 10, 6-[(2S)-2-aminopropyl]-2-chloro-5-fluoro-N-[(furan-2-yl)methyl]-7H-pyrrolo[2,3-d]pyrimidin-4-amine]	≥ 6.30	≥ 6.30	–
CNCCc1[nH]c2nc(Cl)nc(NCc3ccco3)c2c1Cl [Cpd 17, 2,5-dichloro-N-[(furan-2-yl)methyl]-6-[2-(methylamino)ethyl]-7H-pyrrolo[2,3-d]pyrimidin-4-amine]	5.70 to 5.82	5.82 to 6.00	–
C[C@H](N)Cc1c(Cl)c2c(NCc3ccco3)nc(Cl)nc2n1C [Cpd 23, 6-[(2S)-2-aminopropyl]-2,5-dichloro-N-[(furan-2-yl)methyl]-7-methyl-7H-pyrrolo[2,3-d]pyrimidin-4-amine]	6.00 to 6.30	6.00 to 6.30	–
C[C@H](N)Cc1c(F)c2c(NCc3ccco3)nc(Cl)nc2n1C [Cpd 24, 6-[(2S)-2-aminopropyl]-2-chloro-5-fluoro-N-[(furan-2-yl)methyl]-7-methyl-7H-pyrrolo[2,3-d]pyrimidin-4-amine]	5.82 to 6.00	6.00 to 6.30	–
Cc1c(C[C@H](C)N)n(C)c2nc(Cl)nc(NCc3ccco3)c12 [Cpd 35, 6-[(2S)-2-aminopropyl]-2-chloro-N-[(furan-2-yl)methyl]-5,7-dimethyl-7H-pyrrolo[2,3-d]pyrimidin-4-amine]	≥ 6.30	≥ 6.30	–
C[C@H](N)Cc1c(F)c2c(NCc3nccs3)nc(Cl)nc2n1C [Cpd 38, 6-[(2S)-2-aminopropyl]-2-chloro-5-fluoro-7-methyl-N-[(1,3-thiazol-2-yl)methyl]-7H-pyrrolo[2,3-d]pyrimidin-4-amine]	5.82 to 6.00	5.82 to 6.00	–
C[C@H](N)Cc1c(F)c2c(NCc3ccncc3F)nc(Cl)nc2n1C [Cpd 41, 6-[(2S)-2-aminopropyl]-2-chloro-5-fluoro-N-[(3-fluoropyridin-4-yl)methyl]-7-methyl-7H-pyrrolo[2,3-d]pyrimidin-4-amine]	5.52 to 5.70	5.82 to 6.00	–
C[C@H](N)Cc1c(F)c2c(NCc3ccncc3)nc(Cl)nc2n1C [Cpd 43, 6-[(2S)-2-aminopropyl]-2-chloro-5-fluoro-7-methyl-N-[(pyridin-4-yl)methyl]-7H-pyrrolo[2,3-d]pyrimidin-4-amine]	5.52 to 5.70	5.70 to 5.82	–
C[C@H](N)Cc1c(F)c2c(NCc3cncs3)nc(Cl)nc2n1C [Cpd 48, 6-[(2S)-2-aminopropyl]-2-chloro-5-fluoro-7-methyl-N-[(1,3-thiazol-5-yl)methyl]-7H-pyrrolo[2,3-d]pyrimidin-4-amine]	–	–	IC50 (ATXN3 Pre-mRNA): inactive; IC50 [1]: inactive
C[C@H](N)Cc1c(F)c2c(NCc3cccs3)nc(Cl)nc2n1C [Cpd 49, 6-[(2S)-2-aminopropyl]-2-chloro-5-fluoro-7-methyl-N-[(thiophen-2-yl)methyl]-7H-pyrrolo[2,3-d]pyrimidin-4-amine]	6.00 to 6.30	5.82 to 6.00	–
C[C@H](N)Cc1c(F)c2c(NCc3ccccn3)nc(Cl)nc2n1C [Cpd 55, 6-[(2S)-2-aminopropyl]-2-chloro-5-fluoro-7-methyl-N-[(pyridin-2-yl)methyl]-7H-pyrrolo[2,3-d]pyrimidin-4-amine]	–	–	IC50 (ATXN3 Pre-mRNA): inactive; IC50 [1]: inactive
C[C@H](N)Cc1c(F)c2c(NCc3cccnc3)nc(Cl)nc2n1C [Cpd 57, 6-[(2S)-2-aminopropyl]-2-chloro-5-fluoro-7-methyl-N-[(pyridin-3-yl)methyl]-7H-pyrrolo[2,3-d]pyrimidin-4-amine]	–	–	IC50 (ATXN3 Pre-mRNA): inactive; IC50 [1]: inactive

From patent US20240041886A1, “METHODS FOR TREATING SPINOCEREBELLAR ATAXIA TYPE 3” (PTC Therapeutics, Inc., priority 2021, published 2024)
